Results on four compounds are retold here after ChEMBL document CHEMBL3259776, “Discovery and optimization of indazoles as potent and selective interleukin-2 inducible T cell kinase (ITK) inhibitors” (Bioorg Med Chem Lett, 2014).

Data set [1] has as its target T1, Tyrosine-protein kinase ITK/TSK (Homo sapiens, UniProt Q08881).
T1 sequence (Q08881 whole entry): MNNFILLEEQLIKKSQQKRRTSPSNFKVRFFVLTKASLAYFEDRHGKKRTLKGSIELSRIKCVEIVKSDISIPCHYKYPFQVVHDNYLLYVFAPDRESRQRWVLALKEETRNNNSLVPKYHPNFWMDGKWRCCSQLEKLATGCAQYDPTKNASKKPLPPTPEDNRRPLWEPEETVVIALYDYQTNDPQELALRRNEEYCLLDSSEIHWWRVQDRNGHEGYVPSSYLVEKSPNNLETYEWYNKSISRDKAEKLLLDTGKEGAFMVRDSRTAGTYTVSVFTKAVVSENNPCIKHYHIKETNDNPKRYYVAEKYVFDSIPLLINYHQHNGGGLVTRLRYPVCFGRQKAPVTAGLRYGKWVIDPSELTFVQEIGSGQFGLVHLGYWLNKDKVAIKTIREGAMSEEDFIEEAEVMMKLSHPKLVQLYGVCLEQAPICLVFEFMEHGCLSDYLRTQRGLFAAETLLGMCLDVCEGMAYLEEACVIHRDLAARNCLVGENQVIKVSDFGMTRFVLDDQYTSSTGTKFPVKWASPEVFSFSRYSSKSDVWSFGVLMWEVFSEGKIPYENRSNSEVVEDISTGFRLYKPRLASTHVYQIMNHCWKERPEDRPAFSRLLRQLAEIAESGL

A short description of data set [2]: AUC in rat at 1 mg/kg, iv. It is filed as ADME, organism-based. Also on record: dose 1 mg/kg, route intravenous. To be noted: plasma.
A short description of data set [3]: Half life in rat at 1 mg/kg, iv. It is filed as ADME, organism-based. More on the design: dose 1 mg/kg, route intravenous. The following applies: in vivo.
A short description of data set [4]: Oral bioavailability in rat at 5 mg/kg. The data set is classed as ADME, organism-based. To be noted: in vivo.
Data set [5] can be described thus: Clearance in rat at 1 mg/kg, iv. It is filed as ADME, organism-based. More on the design: dose 1 mg/kg, route intravenous. To be noted: in vivo.
Data set [6] can be described thus: Lipophilicity, log D of the compound at pH 7.4. The following applies: buffer.
A short description of data set [7]: Half life in rat at 5 mg/kg, po. It is filed as ADME, organism-based. More on the design: dose 5 mg/kg, route oral. To be noted: in vivo.

Usually Ki stands for the dissociation constant of the complex between target and ligand, obtained from inhibition or displacement. With `O=C(Nc1ncc(Cc2ccccc2)s1)c1n[nH]c2ccccc12`, in data set [1], the Ki is above 4 nM.

In data set [1], `O=C(Nc1ncc(Cc2ccccc2)o1)c1n[nH]c2ccccc12` displayed a Ki above 4 nM.

A word on the AUC: it is the area under the concentration-time curve, a measure of exposure. The low end stands for low exposure, the high end for high exposure. Usually half-life stands for the time in which the quantity being followed falls by half. High values mean slow decline, low ones rapid decline. In general, bioavailability refers to the share of a dose that reaches the circulation, judged against a reference dose that is usually intravenous. Low values mean poor availability, high ones good availability. The term clearance denotes a measure of how efficiently the substance is removed, as volume per time. In data set [2], `CN(C)CC[C@@H](c1ccccc1)n1cc(NC(=O)c2n[nH]c3cc(-c4cn[nH]c4)ccc23)cn1` showed an AUC of 0.837 µM·h. In data set [3], this compound showed a half-life of 5.7 h. Further, the bioavailability in data set [4] came to 0%. Further, the clearance in data set [5] is 44 mL/min/kg.

A word on the logD: it is the decadic logarithm of the distribution of all forms, ionised or not, between an organic phase and buffer at a given pH. High values mean a more lipophilic compound, low ones a more hydrophilic compound. Take `CC(C)(O)[C@@H](c1ccccc1)n1cc(NC(=O)c2n[nH]c3cc(-c4cn[nH]c4)ccc23)cn1`: the AUC in data set [2] came to 2.5 µM·h. In data set [6], this compound yielded a logD of 3.4. For the same compound, the figures for the half-life in data set [7] and in data set [3] were 2.6 h and 1.8 h, respectively. Also, in data set [4], the bioavailability is 9%. For the same compound, the clearance in data set [5] worked out at 11 mL/min/kg.
